# Source: US20260285853A1, “COMPOUNDS AND METHODS FOR MODULATING SPLICING” (REMIX THERAPEUTICS INC., priority 2023, published 2026)
# pIC50: −log10 of the molar value. Read-outs that look alike come from different tables or passages of the source.
# Columns and labels:
# Type in all cases: cell-based
# MYB mRNA [1] = assay: Splicing RT-qPCR assay (THP), Table 2A
# HTT mRNA [2] = assay: Splicing RT-qPCR assay (THP), Table 2A
# HTT mRNA [3] = assay: Gene panel canonical junction qPCR assay, decrease in CJ mRNA, Table 3
# In short: (§1)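 Canonical exon-junction (CJ) transcript measured by 5′ nuclease RT-qPCR, normalized to GAPDH, GUSB or PPIA and to DMSO control (2^(−ΔΔCt)). A673 or K562 cells treated 24 h at 37° C with an 11-point 3-fold dilution series, top 10 uM, DMSO ≤0.25%. IC50 from 4-parameter logistic fit of percentage CJ decrease.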
# MYB mRNA [4] = assay: as above
# In short: as §1
# [5] = tested on: SH-SY5Y (human neuroblastoma) cells; assay: Cell viability, Cell Titer Glo 2.0 assay; conditions: read-out: Viability SHSY5Y.3 GI50
# In short: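 SH-SY5Y cells were exposed to serially diluted compounds in IMDM with 10% FBS and 0.1% DMSO for 72 hours at 37° C., 5% CO2. Viability was measured by CellTiter-Glo 2.0 luminescence, with medium-only wells as blank.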
# [6] = Table 2A (THP), AJ mRNA increase, read-out: MYB AJ (increase in alternative junction mRNA, AC50)
# [7] = Table 2A (THP), CJ mRNA decrease, read-out: MYB CJ (decrease in canonical junction mRNA, IC50)
# [8] = Table 2A (THP), AJ mRNA increase, read-out: HTT AJ (increase in alternative junction mRNA, AC50)
# [9] = Table 2A (THP), CJ mRNA decrease, read-out: HTT CJ (decrease in canonical junction mRNA, IC50)
# [10] = decrease in canonical junction (CJ) mRNA, gene panel qPCR, Table 3
# [11] = Table 2A, THP, MYB alternative junction (AJ) mRNA, read-out: MYB AJ (AC50, increase in alternative junction mRNA)
# [12] = Table 2A, THP, MYB canonical junction (CJ) mRNA, read-out: MYB CJ (IC50, decrease in canonical junction mRNA)
# [13] = Table 2A, THP, HTT alternative junction (AJ) mRNA, read-out: HTT AJ (AC50, increase in alternative junction mRNA)
# [14] = Table 2A, THP, HTT canonical junction (CJ) mRNA, read-out: HTT CJ (IC50, decrease in canonical junction mRNA)
# [15] = decrease in CJ mRNA levels, canonical junction qPCR, gene panel
SMILES,pIC50 (MYB mRNA [1]; [7]),pIC50 (HTT mRNA [2]; [9]),pIC50 (HTT mRNA [3]; [10]),pIC50 (MYB mRNA [4]; [10]),GI50 [5] [µM],pIC50 (MYB mRNA [1]; [12]),pIC50 (HTT mRNA [2]; [14]),pIC50 (HTT mRNA [3]; [15]),pIC50 (MYB mRNA [4]; [15]),AC50 (MYB mRNA [1]; [6]) [µM],AC50 (HTT mRNA [2]; [8]) [µM],AC50 (MYB mRNA [1]; [11]) [µM],AC50 (HTT mRNA [2]; [13]) [µM]
"Cn1cc2cc(NC(=O)c3c(F)cc(N4CCC(NC5CC5)CC4)c4cn(C)nc34)c(OC3CCOC3)cc2n1 (stereo not drawn) [Compound 467, 4-[4-(cyclopropyl-amino)-1-piperidyl]-6-fluoro-2-methyl-N-(2-methyl-6-tetrahydrofuran-3-yloxy-indazol-5-yl)indazole-7-carboxamide]",> 7.00,6.00 to 7.00,6.00 to 7.00,> 7.00,0.1 to 1,–,–,–,–,< 0.1,0.1 to 1,–,–
"COc1cc2nn(C)cc2cc1NC(=O)c1c(F)cc(N2[C@@H]3CC[C@H]2C[C@H](NC2CC2)C3)c2cn(C)nc12 [Compound 429, 4-[(1S,5R)-3-(cyclopropyl-amino)-8-azabicyclo-[3.2.1]octan-8-yl]-6-fluoro-N-(6-methoxy-2-methyl-indazol-5-yl)-2-methyl-indazole-7-carboxamide]",5.00 to 6.00,5.00 to 6.00,5.00 to 6.00,5.00 to 6.00,1 to 10,–,–,–,–,1 to 10,> 10,–,–
"Cc1nc(CN)cn2cc(NC(=O)c3c(F)cc(N4CCC(NC5CC5)CC4)c4cn(C)nc34)nc12 [Compound 401, N-[6-(aminomethyl)-8-methyl-imidazo[1,2-a]pyrazin-2-yl]-4-[4-(cyclopropylamino)-1-piperidyl]-6-fluoro-2-methyl-indazole-7-carboxamide]",5.00 to 6.00,< 5.00,< 5.00,5.00 to 6.00,> 10,–,–,–,–,1 to 10,> 10,–,–
COc1cc2nn(C)cc2cc1NC(=O)c1ccc(N2CCN(C3CNC3)CC2)c2cn(C)nc12 [Compound 544],6.00 to 7.00,6.00 to 7.00,6.00 to 7.00,6.00 to 7.00,0.1 to 1,–,–,–,–,0.1 to 1,0.1 to 1,–,–
"C[C@H]1CN(c2ccc(C(=O)Nc3cc(F)c4nn(C)cc4c3)c3nn(C)cc23)C[C@H](C)N1 [Compound 584, 4-[(3S, 5S)-3,5-dimethylpiperazin-1-yl]-N-(7-fluoro-2-methyl-indazol-5-yl)-2-methyl-indazole-7-carboxamide]",> 7.00,5.00 to 6.00,5.00 to 6.00,> 7.00,0.1 to 1,–,–,–,–,< 0.1,1 to 10,–,–
"Cc1cn2cc(NC(=O)c3c(F)cc(N4CCC(NC5CC5)CC4)c4cn(C)nc34)c(OC3CC3)c(F)c2n1 [Compound 382, N-[7-(cyclopropoxy)-8-fluoro-2-methyl-imidazo [1,2-a]-pyridin-6-yl]-4-[4-(cyclopropylamino)-1-piperidyl]-6-fluoro-2-methyl-indazole-7-carboxamide]",> 7.00,> 7.00,> 7.00,> 7.00,< 0.1,–,–,–,–,< 0.1,< 0.1,–,–
"CNC1CCN(c2ccc(NC(=O)c3cc4cc(C)nn4cc3OC)c3nn(C)cc23)CC1 [Compound 520, 6-methoxy-2-methyl-N-[2-methyl-4-[4-(methyamino)-1-piperidyl]indazol-7-yl]-pyrazolo[1,5-a] pyridine-5-carboxamide]",< 5.00,< 5.00,< 5.00,< 5.00,> 10,–,–,–,–,> 10,> 10,–,–
CNC1CCC(Oc2ccc(C(=O)Nc3cc4cn(C)nc4cc3OC)c3nn(C)cc23)CC1 (stereo not drawn) [Compound 595],< 5.00,5.00 to 6.00,5.00 to 6.00,< 5.00,1 to 10,–,–,–,–,> 10,> 10,–,–
"Cc1cn2cc(NC(=O)c3ccc(N4CCC(NC5CC5)CC4)n4nc(C)nc34)cc(F)c2n1 [Compound 640, 5-[4-(cyclopropylamino)-1-piperidyl]-N-(8-fluoro-2-methyl-imidazo[1,2-a]pyridin-6-yl)-2-methyl-[1,2,4]-triazolo[1,5-a]-pyridine-8-carboxamide]",–,–,–,–,0.1 to 1,> 7.00,6.00 to 7.00,6.00 to 7.00,> 7.00,–,–,< 0.1,0.1 to 1
COc1cc2nn(C)cc2cc1NC(=O)c1ccc(N2CCC(NCC3CC3)CC2)c2cn(C)nc12 [Compound 577],6.00 to 7.00,5.00 to 6.00,5.00 to 6.00,6.00 to 7.00,1 to 10,–,–,–,–,< 0.1,1 to 10,–,–
"COCCOCc1cc2c(N3CCC(NC4CC4)CC3)ccc(C(=O)Nc3cc(F)c4nc(C)cn4c3)n2n1 [Compound 629, 4-[4-(cyclopropylamino)-1-piperidyl]-N-(8-fluoro-2-methyl-imidazo[1,2-a]-pyridin-6-y1)-2-(2-methoxyethoxy-methyl)-pyrazolo[1,5-a]pyridine-7-carboxamide]",–,–,–,–,0.1 to 1,> 7.00,6.00 to 7.00,6.00 to 7.00,> 7.00,–,–,< 0.1,1 to 10
Cc1cn2cc(NC(=O)c3ccc(N4CCC5NCCC5C4)c4cn(C)nc34)nc2c(C)n1 (stereo not drawn) [Compound 531],5.00 to 6.00,< 5.00,< 5.00,5.00 to 6.00,1 to 10,–,–,–,–,1 to 10,> 10,–,–

# Continued, in another order:
pIC50 (MYB mRNA [1]; [7]),pIC50 (HTT mRNA [2]; [9]),pIC50 (HTT mRNA [3]; [10]),pIC50 (MYB mRNA [4]; [10]),GI50 [5] [µM],pIC50 (MYB mRNA [1]; [12]),pIC50 (HTT mRNA [2]; [14]),pIC50 (HTT mRNA [3]; [15]),pIC50 (MYB mRNA [4]; [15]),SMILES,AC50 (MYB mRNA [1]; [6]) [µM],AC50 (HTT mRNA [2]; [8]) [µM],AC50 (MYB mRNA [1]; [11]) [µM],AC50 (HTT mRNA [2]; [13]) [µM]
–,–,–,–,1 to 10,6.00 to 7.00,< 5.00,< 5.00,6.00 to 7.00,"COc1nc2c(C(=O)Nc3cc4cn(C)nc4cc3OC)ccc(N3C[C@H](C)N[C@@H](C)C3)c2s1 [Compound 671, 7-[(3S,5S)-3,5-dimethyl-piperazin-1-yl]-2-methoxy-N-(6-methoxy-2-methyl-indazol-5-yl)-1,3-benzothiazole-4-carboxamide]",–,–,0.1 to 1,1 to 10
–,–,–,–,1 to 10,5.00 to 6.00,5.00 to 6.00,5.00 to 6.00,5.00 to 6.00,Cn1cc2cc(NC(=O)c3ccc(N4CCC(NC5CC5)CC4)c4cn(C)nc34)cc(CNc3nccs3)c2n1 [Compound 881],–,–,0.1 to 1,> 10
–,–,–,–,< 0.1,> 7.00,< 5.00,< 5.00,> 7.00,COc1nc2c(C(=O)Nc3cc(F)c4nn(C)cc4c3)ccc(N3C[C@H](C)NC4(CC4)C3)c2s1 [Compound 741],–,–,< 0.1,1 to 10
–,–,–,–,0.1 to 1,> 7.00,5.00 to 6.00,5.00 to 6.00,> 7.00,COc1cc2c(N3C[C@H](C)N[C@@H](C)C3)ccc(C(=O)Nc3cc(F)c4nn(C)cc4c3)c2o1 [Compound 790],–,–,< 0.1,0.1 to 1
–,–,–,–,< 0.1,> 7.00,6.00 to 7.00,6.00 to 7.00,> 7.00,"CNc1nc2c(C(=O)Nc3cc(F)c4nn(C)cc4c3)ccc(N3C[C@H](C)N[C@@H](C)C3)c2s1 [Compound 699, 7-[(3S,5S)-3,5-dimethylpiperazin-1-yl]-N-(7-fluoro-2-methyl-indazol-5-yl)-2-(methylamino)-1,3-benzothiazole-4-carboxamide]",–,–,< 0.1,0.1 to 1
–,–,–,–,1 to 10,5.00 to 6.00,5.00 to 6.00,5.00 to 6.00,5.00 to 6.00,"Cc1cn2cc(NC(=O)c3ccc(N4CCC(NC5CC5)CC4)c4cn(C)nc34)nc2c(Cn2cccn2)n1 [Compound 773, 4-[4-(cyclopropylamino)-1-piperidyl]-2-methyl-N-[6-methyl-8-(pyrazol-1-ylmethyl)imidazo[1,2-a]pyrazin-2-yl]indazole-7-carboxamide]",–,–,1 to 10,1 to 10
–,–,–,–,> 10,< 5.00,< 5.00,< 5.00,< 5.00,"Cc1cn2cc(NC(=O)c3ccc(N4CCC(NC5CC5)CC4)c4cn(C)nc34)nc2c(CNS(=O)(=O)CCO)n1 [Compound 752, 4-[4-(cyclopropylamino)-1-piperidyl]-N-[8-[(2-hydroxyethylsulfonylamino)methyl]-6-methyl-imidazo[1,2-a]pyrazin-2-yl]-2-methyl-indazole-7-carboxamide]",–,–,> 10,> 10
–,–,–,–,0.1 to 1,6.00 to 7.00,5.00 to 6.00,5.00 to 6.00,6.00 to 7.00,Cc1cc2c(N3CCC(NC4CC4)CC3)ccc(C(=O)Nc3cc(CO)c4nn(C)cc4c3)n2n1 [Compound 858],–,–,0.1 to 1,1 to 10
–,–,–,–,1 to 10,6.00 to 7.00,5.00 to 6.00,5.00 to 6.00,6.00 to 7.00,COc1cc2c(N3CCC(NC4CC4)CC3)ccc(C(=O)Nc3cc(CNS(C)(=O)=O)c4nn(C)cc4c3)n2n1 [Compound 821],–,–,0.1 to 1,> 10
